Several values for one entry are separate records, joined by “and”; a condition that tells them apart may be missing. Identical values can stand only once.
Tests used:
[1] = set-up: method as in PMID 28640062; conditions: patients who consumed a CBD oil, cited from earlier work
[2] = biological target: T1, CYP2J2 in the presence of CPR (Homo sapiens, UniProt P51589); test: Spectroscopic titration, CYP2J2–CPR complex; format: binding
T1 construct: His-tag; made in house; host or cells: E. coli DH-5α with pTGro7 plasmid (CYP)
T1 sequence (P51589 1-502): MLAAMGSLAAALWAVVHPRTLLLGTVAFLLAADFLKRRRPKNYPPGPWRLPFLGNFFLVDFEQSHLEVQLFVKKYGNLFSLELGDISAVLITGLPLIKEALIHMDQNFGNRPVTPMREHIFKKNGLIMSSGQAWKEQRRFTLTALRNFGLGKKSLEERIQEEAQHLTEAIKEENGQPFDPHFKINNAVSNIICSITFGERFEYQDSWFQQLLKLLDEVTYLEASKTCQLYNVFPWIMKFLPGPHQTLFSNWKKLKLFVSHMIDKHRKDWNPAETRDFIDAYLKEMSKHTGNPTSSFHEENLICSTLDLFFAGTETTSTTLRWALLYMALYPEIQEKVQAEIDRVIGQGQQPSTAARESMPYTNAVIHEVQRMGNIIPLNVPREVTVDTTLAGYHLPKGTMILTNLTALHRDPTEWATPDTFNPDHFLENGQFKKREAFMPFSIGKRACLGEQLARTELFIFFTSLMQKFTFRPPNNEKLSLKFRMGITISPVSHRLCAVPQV
T1 sequence (P16435 1-677 partner): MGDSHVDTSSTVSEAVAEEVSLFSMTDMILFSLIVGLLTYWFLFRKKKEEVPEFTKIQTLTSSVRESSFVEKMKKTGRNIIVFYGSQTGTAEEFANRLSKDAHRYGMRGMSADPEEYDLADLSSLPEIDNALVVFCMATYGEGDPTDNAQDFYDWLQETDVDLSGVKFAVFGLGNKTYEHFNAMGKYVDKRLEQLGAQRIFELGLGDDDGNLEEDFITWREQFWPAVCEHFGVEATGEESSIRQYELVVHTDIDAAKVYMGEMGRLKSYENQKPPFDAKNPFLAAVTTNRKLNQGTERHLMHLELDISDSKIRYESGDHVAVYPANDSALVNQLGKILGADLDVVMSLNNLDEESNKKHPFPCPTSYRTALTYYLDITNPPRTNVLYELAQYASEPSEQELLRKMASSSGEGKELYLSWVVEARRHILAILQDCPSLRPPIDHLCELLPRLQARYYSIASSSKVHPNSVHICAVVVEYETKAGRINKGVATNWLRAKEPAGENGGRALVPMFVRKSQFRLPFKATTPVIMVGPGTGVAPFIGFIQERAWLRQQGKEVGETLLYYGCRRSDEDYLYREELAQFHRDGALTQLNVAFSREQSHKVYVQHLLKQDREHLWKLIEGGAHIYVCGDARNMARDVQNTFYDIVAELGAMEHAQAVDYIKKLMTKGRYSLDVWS
Description: For CBC titration to CYP–CPR complex, initially CYPs were dissolved in 400 μL of 0.1 M phosphate buffer (pH = 7.4) keeping the concentration between […]. Following this 50 μL of CPR (50 μM stock) was added to both cuvettes, and the final concentration of both of the proteins was 5–6 μM. Both proteins were initially mixed and incubated for 5 min followed by titration with CBC in the same process as mentioned above. The substrate-bound spectra were then subtracted from substrate-free spectra, and the extent of binding was analyzed using Origin Pro 2020.

Structure (SMILES): CCCCCc1cc(O)c2c(c1)OC(C)(CCC=C(C)C)C=C2 (stereo not shown) [CBC, Cannabichromene]
- detectable level of CBC in plasma ([1]; plasma): ~60 ng/mL
- detectable level of CBC in urine ([1]; urine): ~94 ng/mL
- ΔAmax (spin state change due to heme perturbation) [2]: 0.09 ± 0.00 and ~0.1
- Kd ([2]; read-out: Kd(app)): 1.19 µM and < 10 µM and ~1 µM

Source: paper PMC11061835, “Elucidating the Mechanism of Metabolism of Cannabichromene by Human Cytochrome P450s” (Journal of Natural Products, 2024)
